Reference: patent US20180148418A1, “AMIDO-SUBSTITUTED CYCLOHEXANE DERIVATIVES” (Bayer Pharma Aktiengesellschaft, priority 2015, published 2018)
pIC50: −log10 of the molar value.

Assays:
[1] = test system: HEK293 cells cotransfected with the FOP control vector; assay: HEK293 FOP assay (control reporter with non-functional TCF elements); type: cell-based; details: 16 hours
Procedure: In a parallel approach, HEK293 cells were cotransfected with the FOP control vector and pcDNA3. The FOP vector is identical to the TOP construct, but it contains instead of functional TCF elements a randomized, non-functional sequence. For this transfection a stable transfected cell line was generated as well, based on selection with Geneticin (1 mg/ml).
(§1) In preparation of the assay, the two cell lines were plated 24 h before beginning the test at 10000 cells per well in a 384 micro titre plate (MTP) in 30 μl growth medium. […] The recombinant human Wnt-3a was thereby applied between 2500 and 5 ng/ml in two-fold dilution steps.
(§2) Selective inhibitory activity for small molecules on the wildtype Wnt pathway was determined after parallel incubation of both (TOP and FOP) HEK293 reporter cell lines with a compound dilution series from 50 μM to 15 nM in steps of 3.16-fold dilutions in CAFTY buffer (130 mM sodium chloride, 5 mM potassium chloride, 20 mM HEPES, 1 mM magnesium chloride, 5 mM sodium bicarbonate, pH 7.4) containing 2 mM Ca^2+ and 0.01% BSA.
(§3) The compounds were thereby serially prediluted in 100% DMSO and thereafter 50 fold into the CAFTY compound dilution buffer (described above).

[2] = test system: wildtype Wnt signaling cascade; assay: HEK293 TOP assay (Super TopFlash luciferase reporter, Wnt-3a stimulated); type: cell-based; details: HEK293 TOP reporter cells, Wnt3a at EC50, 16 hours
Source text: 7.1 Measurement of the Inhibitory Activity of Selected Compounds on the Wildtype Wnt Signaling Cascade: HEK293 TOP/FOP Assay
In order to discover and characterize small molecules which inhibit the wildtype Wnt pathway, a cellular reporter assay was employed. The corresponding assay cell was generated by transfection of the mammalian cell line HEK293 (ATCC, #CRL-1573) with the Super TopFlash vector (Morin, Science 275, 1997, 1787-1790; Molenaar et al., Cell 86 (3), 1996, 391-399). The HEK293 cell line is cultivated at 37° C. and 5% CO2 in DMEM (Life Technologies, #41965-039), supplemented with 2 mM glutamine, 20 mM HEPES, 1.4 mM pyruvate, 0.15% Na-bicarbonate and 10% foetal bovine serum (GIBCO, #10270). Stable transfectants were generated by selection with 300 μg/ml Hygromycin.
as §1, §2, §3

TNKS2 = biological target: T1, TNKS2 (Homo sapiens, UniProt Q9H2K2); assay: TNKS2 Assay B (auto-parsylation, [3H]-NAD+ SPA); type: biochemical; details: 6 nM TNKS2, auto-parsylation, over night at room temperature
T1 construct: purchased BPS Bioscience, San Diego, USA 80572 (TNKS2 Histone Ribosylation Assay Kit)
T1 sequence (Q9H2K2 1-1166): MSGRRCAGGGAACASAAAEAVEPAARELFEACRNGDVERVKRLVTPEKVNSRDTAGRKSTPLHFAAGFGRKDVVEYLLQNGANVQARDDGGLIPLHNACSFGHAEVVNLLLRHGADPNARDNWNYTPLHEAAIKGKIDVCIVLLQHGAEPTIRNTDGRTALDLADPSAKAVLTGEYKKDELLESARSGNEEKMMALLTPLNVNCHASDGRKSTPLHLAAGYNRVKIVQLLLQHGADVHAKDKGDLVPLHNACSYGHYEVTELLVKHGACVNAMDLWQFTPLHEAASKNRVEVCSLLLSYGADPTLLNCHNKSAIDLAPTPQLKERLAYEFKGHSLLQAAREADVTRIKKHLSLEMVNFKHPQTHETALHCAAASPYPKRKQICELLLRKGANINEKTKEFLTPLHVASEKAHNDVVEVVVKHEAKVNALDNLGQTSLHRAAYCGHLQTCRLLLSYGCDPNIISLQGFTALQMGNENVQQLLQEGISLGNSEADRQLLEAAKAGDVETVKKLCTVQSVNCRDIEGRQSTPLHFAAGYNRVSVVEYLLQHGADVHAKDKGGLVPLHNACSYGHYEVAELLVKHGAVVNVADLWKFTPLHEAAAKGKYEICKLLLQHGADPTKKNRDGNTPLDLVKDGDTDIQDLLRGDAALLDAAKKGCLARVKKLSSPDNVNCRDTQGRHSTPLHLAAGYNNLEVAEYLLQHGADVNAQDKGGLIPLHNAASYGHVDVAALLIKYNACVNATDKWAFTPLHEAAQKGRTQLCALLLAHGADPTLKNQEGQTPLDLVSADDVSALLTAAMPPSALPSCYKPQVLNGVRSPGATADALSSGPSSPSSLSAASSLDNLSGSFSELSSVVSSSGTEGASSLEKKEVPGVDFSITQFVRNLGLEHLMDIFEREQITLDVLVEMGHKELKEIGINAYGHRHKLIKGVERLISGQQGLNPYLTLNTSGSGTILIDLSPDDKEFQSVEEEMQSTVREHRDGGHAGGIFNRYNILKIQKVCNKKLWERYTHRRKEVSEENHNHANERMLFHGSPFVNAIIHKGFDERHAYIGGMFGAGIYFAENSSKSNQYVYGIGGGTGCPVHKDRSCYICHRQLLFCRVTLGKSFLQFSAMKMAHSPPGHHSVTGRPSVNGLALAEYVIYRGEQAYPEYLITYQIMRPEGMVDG
Procedure: The potency of selected compounds according to the invention was assessed applying a modified in vitro inhibition assay. Here, the TNKS2 catalyzed NAD^+-dependent ribosylation of the enzyme itself (auto-parsylation) was detected using [^3H]-NAD^+ as substrate and applying the scintillation proximity assay (SPA) method to detect tritium-labeled, parsylated TNKS2. The intensity of the readout signal is proportional to the incorporated [^3H]-NAD^+. Inhibition of TNKS2 leads to a decreased incorporation of [^3H]-NAD^+ and consequently to a lower readout signal intensity. The concentration of a test compound which inhibits the enzyme activity by 50% (corresponds to half of the normed readout signal intensity) is reported as IC50.
Protocol Auto-Parsylation Assay
The assay was conducted in a 96 well MTP format with the identical TNKS2 enzyme sample and NAD^+ sample as in the histone ribosylation assay with the following modifications: TNKS2 enzyme sample was diluted with a modified assay buffer (50 mM MES pH 7.0, 1 mM DTT, 0.01% Triton X-100) to a final concentration of 6 nM TNKS2 and 10×NAD^+ solution was diluted with the modified assay buffer (s. above) to a final 0.445×NAD^+ solution doped with 100 Bq/μl [^3H]-NAD^+[Catalog #NET443H050UC, Perkin Elmer, Waltham, Mass., USA]. Substrate solution (10 μl) was incubated with different test compound concentrations (2.5 μl in 10% DMSO in modified assay buffer) or control (2.5 μl 10% DMSO in modified assay buffer only) and enzyme (10 μl) over night at room temperature. Incorporated tritium was measured after addition of 50 ul SPA beads (1 mg/ml) [Catalog #RPNQ0095 20 mg/ml, Perkin Elmer, Waltham, Mass., USA; diluted 1:10 with Dulbecco's phosphate buffered saline, PBS Catalog #D8537, Sigma-Aldrich, Steinheim, Germany] and detection of the photon emission with a beta count plate reader [Wallac MicroBeta®, Perkin Elmer, Waltham, Mass., USA].

Structure (SMILES) | pIC50 ([1]; Homo sapiens) | pIC50 ([2]; Homo sapiens, HEK293, 16 h) | pIC50 (TNKS2) | pIC50 [1] | pIC50 [2]
CNC(=O)c1[nH]cnc1C(=O)N[C@H]1CC[C@]2(CC1)CC(O)N(c1ccc(F)cc1Cl)C2=O (mixture of isomers) [Example 307, N^4-[(trans)-2-(2-chloro-4-fluorophenyl)-3-hydroxy-1-oxo-2-azaspiro[4.5]dec-8-yl]-N^5-methyl-1H-imidazole-4,5-dicarboxamide (mixture of isomers at C3)] | ≤ 4.30 | 7.52 |  |  | 
CC1C[C@]2(CC[C@@H](NC(=O)c3cnn4cccnc34)CC2)C(=O)N1c1ccc(F)cc1Cl (mixture of isomers) [Example 355, N-[(trans)-2-(2-chloro-4-fluorophenyl)-3-methyl-1-oxo-2-azaspiro[4.5]dec-8-yl]pyrazolo[1,5-a]pyrimidine-3-carboxamide (mixture of isomers at C3)] | ≤ 4.30 | 8.47 | 8.08 |  | 
Cc1c(C(C)N(C)C)cnc2c(C(=O)N[C@H]3CC[C@@]4(CCN(c5ccc(F)cc5Cl)C4=O)CC3)cnn12 (mixture of isomers) [Example 358, N-[(trans)-2-(2-chloro-4-fluorophenyl)-1-oxo-2-azaspiro[4.5]dec-8-yl]-6-[1-(dimethylamino)ethyl]-7-methylpyrazolo[1,5-a]pyrimidine-3-carboxamide (racemate)] | ≤ 4.30 | 8.24 | 7.39 |  | 
CC1CC2(CCC(NC(=O)c3cnn4cccnc34)CC2)C(=O)N1c1ccc(F)cc1Cl (single isomer, unassigned; enantiomer 1) [Example 356, N-[(trans)-2-(2-chloro-4-fluorophenyl)-3-methyl-1-oxo-2-azaspiro[4.5]dec-8-yl]pyrazolo[1,5-a]pyrimidine-3-carboxamide (enantiomer 1)] |  |  |  | ≤ 4.30 | 7.59
CC1CC2(CCC(NC(=O)c3cnn4cccnc34)CC2)C(=O)N1c1ccc(F)cc1Cl (single isomer, unassigned; enantiomer 2) [Example 357, N-[(trans)-2-(2-chloro-4-fluorophenyl)-3-methyl-1-oxo-2-azaspiro[4.5]dec-8-yl]pyrazolo[1,5-a]pyrimidine-3-carboxamide (enantiomer 2)] |  |  |  | ≤ 4.30 | 8.28
CNC(=O)c1[nH]cnc1C(=O)N[C@H]1CC[C@H](C(=O)Nc2ccc(F)cc2Cl)CC1(F)F (stereo in doubt) [Example 34, N^4-{(trans)-4-[(2-chloro-4-fluorophenyl)carbamoyl]-2,2-difluorocyclohexyl}-N^5-methyl-1H-imidazole-4,5-dicarboxamide] | ≤ 4.30 | 6.68 |  |  | 
CNC(=O)c1[nH]cnc1C(=O)NC1CCC(C(=O)Nc2ccc(F)cc2Cl)CC1C (centres unmarked) [Example 38, N^4-{4-[(2-chloro-4-fluorophenyl)carbamoyl]-2-methylcyclohexyl}-N^5-methyl-1H-imidazole-4,5-dicarboxamide] | ≤ 4.30 | 6.36 |  |  | 
CNC(=O)c1[nH]cnc1C(=O)NC1CCC(C(=O)Nc2ccc(F)cc2Cl)CC1C (centres unmarked) [Example 40, N^4-{4-[(2-chloro-4-fluorophenyl)carbamoyl]-2-methylcyclohexyl}-N^5-methyl-1H-imidazole-4,5-dicarboxamide] |  |  |  | ≤ 4.30 | 6.34
O=C(N[C@H]1CC[C@H](C(=O)Nc2c(F)cc(F)cc2Cl)CC1)c1cnn2cccnc12 [Example 131, N-{trans-4-[(2-chloro-4,6-difluorophenyl)carbamoyl]cyclohexyl}pyrazolo[1,5-a]pyrimidine-3-carboxamide] | ≤ 4.30 | 6.85 |  |  | 
N#Cc1cc(F)cc(Cl)c1NC(=O)[C@H]1CC[C@H](NC(=O)c2cnn3cccnc23)CC1 [Example 152, N-{trans-4-[(2-chloro-6-cyano-4-fluorophenyl)carbamoyl]cyclohexyl}pyrazolo[1,5-a]pyrimidine-3-carboxamide] | ≤ 4.30 | 7.04 | 6.85 |  | 
Cc1cc(NC(=O)[C@H]2CC[C@H](NC(=O)c3cnn4cccnc34)CC2)c(Cl)cn1 [Example 153, N-{trans-4-[(5-chloro-2-methylpyridin-4-yl)carbamoyl]cyclohexyl}pyrazolo[1,5-a]pyrimidine-3-carboxamide] | ≤ 4.30 | 6.28 | 6.77 |  | 
CNC(=O)c1nc[nH]c1C(=O)N[C@H]1CC[C@H](C(=O)Nc2snc(C)c2Cl)CC1 [Example 175, N^5-{trans-4-[(4-chloro-3-methyl-1,2-thiazol-5-yl)carbamoyl]cyclohexyl}-N^4-methyl-1H-imidazole-4,5-dicarboxamide] | 5.89 | 5.80 |  |  | 
CN1CCN(c2ccn3ncc(C(=O)N[C@H]4CC[C@@]5(CCN(c6ccc(F)cc6Cl)C5=O)CC4)c3n2)CC1 [Example 229, N-[(trans)-2-(2-chloro-4-fluorophenyl)-1-oxo-2-azaspiro[4.5]dec-8-yl]-5-(4-methylpiperazin-1-yl)pyrazolo[1,5-a]pyrimidine-3-carboxamide] | ≤ 4.30 | 7.24 |  |  | 
Cc1cc(O)n2ncc(C(=O)N[C@H]3CC[C@@]4(CCN(c5ccc(F)cc5Cl)C4=O)CC3)c2n1 [Example 364, N-[(trans)-2-(2-chloro-4-fluorophenyl)-1-oxo-2-azaspiro[4.5]dec-8-yl]-7-hydroxy-5-methylpyrazolo[1,5-a]pyrimidine-3-carboxamide] | ≤ 4.30 | 6.77 |  |  | 
